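Results reflect a 48-hour exposure of cells in 96-well plates to compound at five concentrations. Here, GI50 denotes the concentration required for 50% inhibition of growth. TGI marks complete inhibition of growth.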
Columns and labels:
Test in all cases: NCI anticancer screen, dose series, 48 h; in the data active = GI50 below about 0.43 µM; inactive = the rest
SF-295 CNS = tested on: SF-295 CNS
DMS 114 small cell lung = tested on: DMS 114 small cell lung
EKVX NSCLC = tested on: EKVX NSCLC
SF-539 CNS = tested on: SF-539 CNS
ACHN renal = tested on: ACHN renal
OVCAR-5 ovarian = tested on: OVCAR-5 ovarian
SK-MEL-5 melanoma = tested on: SK-MEL-5 melanoma
OVCAR-3 ovarian = tested on: OVCAR-3 ovarian
U251 CNS = tested on: U251 CNS
LOX IMVI melanoma = tested on: LOX IMVI melanoma
NCI-H460 lung = tested on: NCI-H460 lung
UACC-257 melanoma = tested on: UACC-257 melanoma
CCRF-CEM leukemia = tested on: CCRF-CEM leukemia
SR leukemia = tested on: SR leukemia
UACC-62 melanoma = tested on: UACC-62 melanoma
CAKI-1 renal = tested on: CAKI-1 renal
HT29 colon = tested on: HT29 colon
SK-OV-3 ovarian = tested on: SK-OV-3 ovarian
XF 498 CNS = tested on: XF 498 CNS
HOP-62 NSCLC = tested on: HOP-62 NSCLC
HOP-18 NSCLC = tested on: HOP-18 NSCLC
SK-MEL-28 melanoma = tested on: SK-MEL-28 melanoma
TK-10 renal = tested on: TK-10 renal
HCC-2998 colon = tested on: HCC-2998 colon
IGROV1 ovarian = tested on: IGROV1 ovarian
OVCAR-8 ovarian = tested on: OVCAR-8 ovarian
LXFL 529 NSCLC = tested on: LXFL 529 NSCLC
A549 NSCLC = tested on: A549 NSCLC
HCT-116 colon = tested on: HCT-116 colon
SK-MEL-2 melanoma = tested on: SK-MEL-2 melanoma
OVCAR-4 ovarian = tested on: OVCAR-4 ovarian
UO-31 renal = tested on: UO-31 renal
KM12 colon = tested on: KM12 colon
HCT-15 colon = tested on: HCT-15 colon
786-0 renal = tested on: 786-0 renal
SNB-75 CNS = tested on: SNB-75 CNS
SNB-78 CNS = tested on: SNB-78 CNS
COLO 205 colon = tested on: COLO 205 colon
MALME-3M melanoma = tested on: MALME-3M melanoma
M14 melanoma = tested on: M14 melanoma
HL-60(TB) leukemia = tested on: HL-60(TB) leukemia
MOLT-4 leukemia = tested on: MOLT-4 leukemia
KM20L2 colon = tested on: KM20L2 colon
SF-268 CNS = tested on: SF-268 CNS
NCI-H23 lung = tested on: NCI-H23 lung
RXF-631 renal = tested on: RXF-631 renal
NCI-H522 lung = tested on: NCI-H522 lung
RPMI-8226 leukemia = tested on: RPMI-8226 leukemia
M19-MEL melanoma = tested on: M19-MEL melanoma
SW-620 colon = tested on: SW-620 colon
NCI-H226 lung = tested on: NCI-H226 lung
SNB-19 CNS = tested on: SNB-19 CNS
DLD-1 colon = tested on: DLD-1 colon
K-562 leukemia = tested on: K-562 leukemia
A498 renal = tested on: A498 renal
SN12C renal = tested on: SN12C renal
RXF 393 renal = tested on: RXF 393 renal
HOP-92 NSCLC = tested on: HOP-92 NSCLC

CC[O-].CC[O-].CN(C)c1ccc([O-])cc1.CN(C)c1ccc([O-])cc1.[Ti+4]
49.5 µM: TGI (HT29 colon)
inactive: GI50 (SF-295 CNS) 48.7 µM | GI50 (DMS 114 small cell lung) 35 µM | GI50 (EKVX NSCLC) > 100 µM | GI50 (SF-539 CNS) 30.8 µM | GI50 (ACHN renal) 40.9 µM | GI50 (OVCAR-5 ovarian) > 100 µM | GI50 (SK-MEL-5 melanoma) 99.8 µM | GI50 (OVCAR-3 ovarian) 56.1 µM | GI50 (U251 CNS) 39 µM | GI50 (LOX IMVI melanoma) 38.6 µM | GI50 (NCI-H460 lung) 27.7 µM | GI50 (UACC-257 melanoma) 28.7 µM | GI50 (CCRF-CEM leukemia) 36.4 µM | GI50 (SR leukemia) 72.2 µM | GI50 (UACC-62 melanoma) > 100 µM | GI50 (CAKI-1 renal) > 100 µM | GI50 (HT29 colon) 21.3 µM | GI50 (SK-OV-3 ovarian) > 100 µM | GI50 (XF 498 CNS) > 100 µM | GI50 (HOP-62 NSCLC) > 100 µM | GI50 (HOP-18 NSCLC) > 100 µM | GI50 (SK-MEL-28 melanoma) > 100 µM | GI50 (TK-10 renal) > 100 µM | GI50 (HCC-2998 colon) 53.6 µM | GI50 (IGROV1 ovarian) > 100 µM | GI50 (OVCAR-8 ovarian) 36.8 µM | GI50 (LXFL 529 NSCLC) 68.2 µM | GI50 (A549 NSCLC) 54.4 µM | GI50 (HCT-116 colon) 52.5 µM | GI50 (SK-MEL-2 melanoma) > 100 µM | GI50 (OVCAR-4 ovarian) > 100 µM | GI50 (UO-31 renal) > 100 µM | GI50 (KM12 colon) 29.3 µM | GI50 (HCT-15 colon) 61.4 µM | GI50 (786-0 renal) 32 µM | GI50 (SNB-75 CNS) > 100 µM | GI50 (SNB-78 CNS) > 100 µM | GI50 (COLO 205 colon) 58.4 µM | GI50 (MALME-3M melanoma) 82.9 µM | GI50 (M14 melanoma) 98.4 µM | GI50 (HL-60(TB) leukemia) 46.4 µM | GI50 (MOLT-4 leukemia) 32.4 µM | GI50 (KM20L2 colon) 61.7 µM | GI50 (SF-268 CNS) 36.4 µM | GI50 (NCI-H23 lung) 70.6 µM | GI50 (RXF-631 renal) 66.1 µM | GI50 (NCI-H522 lung) 52.3 µM | GI50 (RPMI-8226 leukemia) 95.7 µM | GI50 (M19-MEL melanoma) 39.3 µM | GI50 (SW-620 colon) 70.5 µM | GI50 (NCI-H226 lung) > 100 µM | GI50 (SNB-19 CNS) > 100 µM | GI50 (DLD-1 colon) 61.4 µM | GI50 (K-562 leukemia) 29.1 µM
75 µM: TGI (NCI-H460 lung)
> 100 µM: TGI (SF-295 CNS) | TGI (DMS 114 small cell lung) | TGI (EKVX NSCLC) | TGI (SF-539 CNS) | TGI (ACHN renal) | TGI (OVCAR-5 ovarian) | TGI (SK-MEL-5 melanoma) | TGI (OVCAR-3 ovarian) | TGI (U251 CNS) | TGI (LOX IMVI melanoma) | TGI (UACC-257 melanoma) | TGI (CCRF-CEM leukemia) | TGI (SR leukemia) | TGI (UACC-62 melanoma) | TGI (CAKI-1 renal) | TGI (SK-OV-3 ovarian) | TGI (XF 498 CNS) | TGI (HOP-62 NSCLC) | TGI (HOP-18 NSCLC) | TGI (SK-MEL-28 melanoma) | TGI (TK-10 renal) | TGI (HCC-2998 colon) | TGI (IGROV1 ovarian) | TGI (OVCAR-8 ovarian) | TGI (LXFL 529 NSCLC) | TGI (A549 NSCLC) | TGI (HCT-116 colon) | TGI (SK-MEL-2 melanoma) | TGI (OVCAR-4 ovarian) | TGI (UO-31 renal) | TGI (KM12 colon) | TGI (HCT-15 colon) | TGI (786-0 renal) | TGI (SNB-75 CNS) | TGI (SNB-78 CNS) | TGI (COLO 205 colon) | TGI (MALME-3M melanoma) | TGI (M14 melanoma) | TGI (HL-60(TB) leukemia) | TGI (MOLT-4 leukemia) | TGI (KM20L2 colon) | TGI (SF-268 CNS) | TGI (NCI-H23 lung) | TGI (RXF-631 renal) | TGI (NCI-H522 lung) | TGI (RPMI-8226 leukemia) | TGI (M19-MEL melanoma) | TGI (SW-620 colon) | TGI (NCI-H226 lung) | TGI (SNB-19 CNS) | TGI (DLD-1 colon) | TGI (K-562 leukemia)

NC(=O)/C(=N\NC(=O)c1cc2ccccc2cc1O)C1C(=O)N(c2ccccc2)N=C1N (centres undefined)
37.2 µM: TGI (SK-MEL-5 melanoma)
65 µM: TGI (UACC-257 melanoma)
47.2 µM: TGI (HL-60(TB) leukemia)
> 100 µM: TGI (SF-295 CNS) | TGI (EKVX NSCLC) | TGI (ACHN renal) | TGI (OVCAR-3 ovarian) | TGI (U251 CNS) | TGI (LOX IMVI melanoma) | TGI (NCI-H460 lung) | TGI (HT29 colon) | TGI (XF 498 CNS) | TGI (HOP-62 NSCLC) | TGI (SN12C renal) | TGI (HOP-18 NSCLC) | TGI (SK-MEL-28 melanoma) | TGI (TK-10 renal) | TGI (HCC-2998 colon) | TGI (IGROV1 ovarian) | TGI (OVCAR-8 ovarian) | TGI (LXFL 529 NSCLC) | TGI (A549 NSCLC) | TGI (HCT-116 colon) | TGI (OVCAR-4 ovarian) | TGI (UO-31 renal) | TGI (KM12 colon) | TGI (786-0 renal) | TGI (SNB-75 CNS) | TGI (SNB-78 CNS) | TGI (RXF 393 renal) | TGI (COLO 205 colon) | TGI (MALME-3M melanoma) | TGI (M14 melanoma) | TGI (KM20L2 colon) | TGI (SF-268 CNS) | TGI (RXF-631 renal) | TGI (RPMI-8226 leukemia) | TGI (M19-MEL melanoma) | TGI (SW-620 colon) | TGI (NCI-H226 lung) | TGI (SNB-19 CNS) | TGI (DLD-1 colon)
54 µM: TGI (OVCAR-5 ovarian)
37.5 µM: TGI (A498 renal)
83 µM: TGI (SK-MEL-2 melanoma)
94.6 µM: TGI (HOP-92 NSCLC)
53.2 µM: TGI (DMS 114 small cell lung)
56.5 µM: TGI (NCI-H23 lung)
94.5 µM: TGI (MOLT-4 leukemia)
87.6 µM: TGI (CCRF-CEM leukemia)
35.9 µM: TGI (UACC-62 melanoma)
